Patent US12714706B2, “Methods of treating small cell lung cancer with lurbinectedin formulations” (PHARMA MAR, S.A., priority 2019, dated 2026)
Converted amounts (≈) assume the structure as drawn. Like-named read-outs stand apart in the source and are kept apart here.

Experiments:
physchem [1] = settings: pH 4, aqueous buffer
Procedure: (§1) Bulk solutions of phosphate, acetate, citrate, lactate and succinate buffers were prepared to determine maximum solubility of lurbinectedin.

[2] = Maximum solubility of lurbinectedin in various buffers pH 4 (impact of buffer molarity)
Procedure: as §1

SCLC patients = experiment: Phase 2 trial of lurbinectedin monotherapy in SCLC: safety evaluation (NCI-CTCAE v4); assay type: in vivo, human
Procedure: Patients were evaluated for safety if they had received any partial or complete infusion of lurbinectedin. All adverse events were graded according to the National Cancer Institute-Common Toxicity Criteria for Adverse Events (NCI-CTCAE, v4). The safety profile of patients was monitored throughout the treatment and up to 30 days after the last lurbinectedin infusion (end of treatment), or until the patient started a new anti-tumor therapy or until the date of death, whichever occurred first. Treatment delays, dose reduction requirements, transfusions, and reason for treatment discontinuation was monitored throughout the study. Any treatment-related adverse events were followed until recovery to at least grade 1 or stabilization of symptoms or until the start of a new anti-tumor therapy, whichever occurred first.

physchem [3] = experiment: physchem
[4] = Sodium acetate pH 3, 25°C/60% RH
[5] = Sodium acetate pH 3, 14 d 25°C/60% RH
[6] = Sodium acetate pH 4, 25°C/60% RH
[7] = Sodium acetate pH 4, 14 d 25°C/60% RH
[8] = Sodium acetate pH 5, 25°C/60% RH
[9] = Sodium acetate pH 5, 14 d 25°C/60% RH
[10] = Sodium citrate pH 3, 25°C/60% RH
[11] = Sodium citrate pH 3, 14 d 25°C/60% RH
[12] = Sodium citrate pH 4, 25°C/60% RH
[13] = Sodium citrate pH 4, 14 d 25°C/60% RH
[14] = Sodium citrate pH 5, 25°C/60% RH
[15] = Sodium citrate pH 5, 14 d 25°C/60% RH
[16] = Sodium lactate pH 3, 25°C/60% RH
[17] = Sodium lactate pH 3, 14 d 25°C/60% RH
[18] = Sodium lactate pH 4, 25°C/60% RH
[19] = Sodium lactate pH 4, 14 d 25°C/60% RH
[20] = Sodium lactate pH 5, 25°C/60% RH
[21] = Sodium lactate pH 5, 14 d 25°C/60% RH
[22] = Sodium succinate pH 3, 25°C/60% RH
[23] = Sodium succinate pH 3, 14 d 25°C/60% RH
[24] = Sodium succinate pH 4, 25°C/60% RH
[25] = Sodium succinate pH 4, 14 d 25°C/60% RH
[26] = Sodium succinate pH 5, 25°C/60% RH
[27] = Sodium succinate pH 5, 14 d 25°C/60% RH
[28] = 105 SCLC patients, 3.2 mg/m^2 q3wk
[29] = biochemical abnormality regardless of relation to study drug, patients with laboratory data, NCI-CTCAE v4.0, SCLC
[30] = haematological abnormality regardless of relation to study drug, NCI-CTCAE v4.0, 105 treated SCLC patients
[31] = treatment-related adverse event, NCI-CTCAE v4.0, 105 treated SCLC patients

## COc1ccc2[nH]c3c(c2c1)CCN[C@]31CS[C@@H]2c3c(OC(C)=O)c(C)c4c(c3[C@H](COC1=O)N1[C@@H]2[C@H]2c3c(cc(C)c(OC)c3O)C[C@@H]([C@@H]1O)N2C)OCO4 [lurbinectedin, Lurbinectedin]
Physchem [1]; monopotassium phosphate buffer
  solubility: 210 µg/mL (≈ 268 µM)
Physchem [1]; sodium acetate buffer
  solubility: 940 µg/mL (≈ 1200 µM)
Physchem [1]; sodium citrate buffer
  solubility: 930 µg/mL (≈ 1180 µM)
Physchem [1]; sodium lactate buffer
  solubility: 900 µg/mL (≈ 1150 µM)
Physchem [1]; sodium succinate buffer
  solubility: 970 µg/mL (≈ 1240 µM)
Sodium acetate pH 3
  Concentration t = 0 h: 0.95 mg/mL
  Purity t = 0 h: 99.2%
[4]
  Concentration t = 14 d: 0.88 mg/mL
  Purity t = 14 d: 98.0%
[5]
  Concentration decrease: 6.8%
  Degradation: 1.2%
Sodium acetate pH 4
  Concentration t = 0 h: 0.94 mg/mL
  Purity t = 0 h: 99.2%
[6]
  Concentration t = 14 d: 0.89 mg/mL
  Purity t = 14 d: 98.0%
[7]
  Concentration decrease: 5.7%
  Degradation: 1.2%
Sodium acetate pH 5
  Concentration t = 0 h: 0.03 mg/mL
  Purity t = 0 h: 95.4%
[8]
  Concentration t = 14 d: 0.03 mg/mL
  Purity t = 14 d: 93.7%
[9]
  Concentration decrease: 8.2%
  Degradation: 1.7%
Sodium citrate pH 3
  Concentration t = 0 h: 0.94 mg/mL
  Purity t = 0 h: 99.4%
[10]
  Concentration t = 14 d: 0.92 mg/mL
  Purity t = 14 d: 97.9%
[11]
  Concentration decrease: 1.2%
  Degradation: 1.6%
Sodium citrate pH 4
  Concentration t = 0 h: 0.93 mg/mL
  Purity t = 0 h: 99.4%
[12]
  Concentration t = 14 d: 0.88 mg/mL
  Purity t = 14 d: 96.2%
[13]
  Concentration decrease: 6.0%
  Degradation: 3.2%
Sodium citrate pH 5
  Concentration t = 0 h: 0.50 mg/mL
  Purity t = 0 h: 99.3%
[14]
  Concentration t = 14 d: 0.11 mg/mL
  Purity t = 14 d: 95.0%
[15]
  Concentration decrease: 78.5%
  Degradation: 4.3%
Sodium lactate pH 3
  Concentration t = 0 h: 0.94 mg/mL
  Purity t = 0 h: 99.3%
[16]
  Concentration t = 14 d: 0.93 mg/mL
  Purity t = 14 d: 98.6%
[17]
  Concentration decrease: 0.9%
  Degradation: 0.7%
Sodium lactate pH 4
  Concentration t = 0 h: 0.90 mg/mL
  Purity t = 0 h: 99.3%
[18]
  Concentration t = 14 d: 0.87 mg/mL
  Purity t = 14 d: 97.8%
[19]
  Concentration decrease: 3.0%
  Degradation: 1.5%
Sodium lactate pH 5
  Concentration t = 0 h: 0.03 mg/mL
  Purity t = 0 h: 96.5%
[20]
  Concentration t = 14 d: 0.03 mg/mL
  Purity t = 14 d: 93.9%
[21]
  Concentration decrease: 6.9%
  Degradation: 2.6%
Sodium succinate pH 3
  Concentration t = 0 h: 0.96 mg/mL
  Purity t = 0 h: 99.3%
[22]
  Concentration t = 14 d: 0.93 mg/mL
  Purity t = 14 d: 97.7%
[23]
  Concentration decrease: 3.2%
  Degradation: 1.5%
Sodium succinate pH 4
  Concentration t = 0 h: 0.97 mg/mL
  Purity t = 0 h: 99.2%
[24]
  Concentration t = 14 d: 0.89 mg/mL
  Purity t = 14 d: 96.8%
[25]
  Concentration decrease: 7.6%
  Degradation: 2.4%
Sodium succinate pH 5
  Concentration t = 0 h: 0.04 mg/mL
  Purity t = 0 h: 95.9%
[26]
  Concentration t = 14 d: 0.03 mg/mL
  Purity t = 14 d: 94.2%
[27]
  Concentration decrease: 8.1%
  Degradation: 1.8%
[2]; Monopotassium phosphate buffer pH 4, 0.06-01 M
  Lurbinectedin maximum solubility: 0.32 mg/mL
[2]; Sodium acetate buffer pH 4, 0.06-01 M
  Lurbinectedin maximum solubility: 0.86 mg/mL
[2]; Sodium lactate buffer pH 4, 0.06-01 M
  Lurbinectedin maximum solubility: 0.92 mg/mL
SCLC patients; 105 SCLC patients
  Patients with dose delays caused by neutropenia: 12%
  Patients with dose reductions caused by neutropenia: 16%
SCLC patients; [28]
  Patients with dose administration delayed because of treatment-related adverse events: 22%
  Patients with dose reduced because of treatment-related adverse events: 26%
SCLC patients; 105 treated patients
  Discontinuation because of treatment-related adverse events: 2%
  Drug-induced liver injury: no cases
  Grade 3-4 anemia: 9%
  Grade 3-4 febrile neutropenia: 5%
  Grade 3-4 leukopenia: 29%
  Grade 3-4 neutropenia: 46%
  Grade 3-4 thrombocytopenia: 7%
  Grade 3 pneumonia: 2%
  Patients who received G-CSF secondary prophylaxis or therapy for neutropenia: 22%
  Serious treatment-related adverse events: 10%
  Serious treatment-related febrile neutropenia: 5%
  Serious treatment-related neutropenia: 5%
  Treatment-related deaths: No treatment-related deaths
SCLC patients; [29]
  Alanine aminotransferase, Grade 4: 0 n (%) of patients
  Alkaline phosphatase, Grade 4: 0 n (%) of patients
  Aspartate aminotransferase, Grade 4: 0 n (%) of patients
  Creatinine, Grade 3: 0 n (%) of patients
  Creatinine, Grade 4: 0 n (%) of patients
SCLC patients; [30]
  Anaemia, Grade 1-2: 91 (87%) n (%) of patients
  Anaemia, Grade 3: 9 (9%) n (%) of patients
  Anaemia, Grade 4: 0 n (%) of patients
  Leucopenia, Grade 1-2: 53 (50%) n (%) of patients
  Leucopenia, Grade 3: 20 (19%) n (%) of patients
  Leucopenia, Grade 4: 10 (10%) n (%) of patients
  Neutropenia, Grade 1-2: 27 (26%) n (%) of patients
  Neutropenia, Grade 3: 22 (21%) n (%) of patients
  Neutropenia, Grade 4: 26 (25%) n (%) of patients
  Thrombocytopenia, Grade 1-2: 39 (37%) n (%) of patients
  Thrombocytopenia, Grade 3: 3 (3%) n (%) of patients
  Thrombocytopenia, Grade 4: 4 (4%) n (%) of patients
SCLC patients; [31]
  Decreased appetite, Grade 1-2: 22 (21%) n (%) of patients
  Decreased appetite, Grade 3: 0 n (%) of patients
  Decreased appetite, Grade 4: 0 n (%) of patients
  Diarrhoea, Grade 1-2: 13 (14%) n (%) of patients
  Diarrhoea, Grade 3: 1 (1%) n (%) of patients
  Diarrhoea, Grade 4: 0 n (%) of patients
  Fatigue, Grade 1-2: 54 (51%) n (%) of patients
  Fatigue, Grade 3: 7 (7%) n (%) of patients
  Fatigue, Grade 4: 0 n (%) of patients
  Febrile neutropenia, Grade 1-2: 0 n (%) of patients
  Febrile neutropenia, Grade 3: 2 (2%) n (%) of patients
  Febrile neutropenia, Grade 4: 3 (3%) n (%) of patients
  Nausea, Grade 1-2: 34 (32%) n (%) of patients
  Nausea, Grade 3: 0 n (%) of patients
  Nausea, Grade 4: 0 n (%) of patients
  Pneumonia, Grade 1-2: 0 n (%) of patients
  Pneumonia, Grade 3: 2 (2%) n (%) of patients
  Pneumonia, Grade 4: 0 n (%) of patients
  Skin ulcer, Grade 1-2: 0 n (%) of patients
  Skin ulcer, Grade 3: 1 (1%) n (%) of patients
  Skin ulcer, Grade 4: 0 n (%) of patients
  Vomiting, Grade 1-2: 19 (18%) n (%) of patients
  Vomiting, Grade 3: 0 n (%) of patients
  Vomiting, Grade 4: 0 n (%) of patients
Physchem [3]; sodium acetate buffer, pH 3, aqueous buffer
  solubility: 950 µg/mL (≈ 1210 µM)
Physchem [3]; sodium acetate buffer, pH 4, aqueous buffer
  solubility: 940 µg/mL (≈ 1200 µM)
Physchem [3]; sodium acetate buffer, pH 5, aqueous buffer
  solubility: 30 µg/mL (≈ 38.2 µM)
Physchem [3]; sodium citrate buffer, pH 3, aqueous buffer
  solubility: 940 µg/mL (≈ 1200 µM)
Physchem [3]; sodium citrate buffer, pH 4, aqueous buffer
  solubility: 930 µg/mL (≈ 1180 µM)
Physchem [3]; sodium citrate buffer, pH 5, aqueous buffer
  solubility: 500 µg/mL (≈ 637 µM)
Physchem [3]; sodium lactate buffer, pH 3, aqueous buffer
  solubility: 940 µg/mL (≈ 1200 µM)
Physchem [3]; sodium lactate buffer, pH 4, aqueous buffer
  solubility: 900 µg/mL (≈ 1150 µM)
Physchem [3]; sodium lactate buffer, pH 5, aqueous buffer
  solubility: 30 µg/mL (≈ 38.2 µM)
Physchem [3]; sodium succinate buffer, pH 3, aqueous buffer
  solubility: 960 µg/mL (≈ 1220 µM)
Physchem [3]; sodium succinate buffer, pH 4, aqueous buffer
  solubility: 970 µg/mL (≈ 1240 µM)
Physchem [3]; sodium succinate buffer, pH 5, aqueous buffer
  solubility: 40 µg/mL (≈ 51 µM)
